For 1 compound, Ki results are on record in BindingDB's records for PubMed 10565829 (Loughborough University, 1999).

Assay [1] addresses Kappa-type opioid receptor (Cavia porcellus, UniProt P41144).
The target of assay [2] is Mu-type opioid receptor (Cavia porcellus, UniProt P97266).
Mu-type opioid receptor, sequence (P97266 whole entry): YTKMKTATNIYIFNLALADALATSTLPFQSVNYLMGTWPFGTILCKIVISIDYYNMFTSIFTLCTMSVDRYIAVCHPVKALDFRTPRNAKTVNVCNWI

Kappa-type opioid receptor, sequence (P41144 whole entry): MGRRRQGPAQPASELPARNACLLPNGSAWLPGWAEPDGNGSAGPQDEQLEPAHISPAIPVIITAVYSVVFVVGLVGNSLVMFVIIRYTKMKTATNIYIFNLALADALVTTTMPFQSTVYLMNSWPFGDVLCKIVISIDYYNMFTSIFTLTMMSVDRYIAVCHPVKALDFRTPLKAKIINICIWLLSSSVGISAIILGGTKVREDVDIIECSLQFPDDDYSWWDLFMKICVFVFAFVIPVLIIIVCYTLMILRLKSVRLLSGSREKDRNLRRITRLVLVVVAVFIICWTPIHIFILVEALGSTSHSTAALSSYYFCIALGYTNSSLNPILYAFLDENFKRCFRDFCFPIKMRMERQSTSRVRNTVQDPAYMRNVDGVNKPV

Broadly, the Ki is the equilibrium dissociation constant of an inhibitor or competing ligand from its target. Read a low Ki as a stronger hold on the target. Take `CO[C@@]12CC[C@@]3(C[C@@H]1[C@@](C)(O)C(C)(C)C)[C@H]1Cc4ccc(O)c5c4[C@@]3(CCN1CC1CC1)[C@H]2O5` [BUPRENORPHINE]: the Ki in assay [1] was determined as 2 nM; in assay [2] it was 0.57 nM.
